Assay results taken from article PMC12136037, “Type II kinase inhibitors that target Parkinson’s disease–associated LRRK2” (Science Advances, 2025).

Columns and labels:
Assay in all cases: DSF 100 kinase selectivity screen;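 also: compound tested at 20 µM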
Assay type in all cases: binding
[1] = target: T1, ~100 representative kinases (Homo sapiens, UniProt P78368); details: Protein CSNK1G2; average of three replicates
T1 construct: Recombinant protein kinase domains with a concentration of 2 μM
Method in brief: (§1)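 Each kinase domain, at 2 μM, is mixed with 20 μM test compound and SYPRO Orange in Hepes (20 mM, pH 7.5) with 500 mM NaCl. Temperature is then raised at 3°C/min and fluorescence-monitored unfolding yields the melting temperature change, ΔTm in degrees Celsius.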

[2] = target: T2, ~100 representative kinases (Homo sapiens, UniProt P22607); details: protein FGFR3; average of three replicates
T2 construct: Recombinant protein kinase domains with a concentration of 2 μM
Method in brief: as §1

[3] = target: T3, ~100 representative kinases (Homo sapiens, UniProt O15164); details: Protein TIF1; DSF; average of three replicates
T3 construct: Recombinant protein kinase domains with a concentration of 2 μM
T3 sequence (O15164 1-1050): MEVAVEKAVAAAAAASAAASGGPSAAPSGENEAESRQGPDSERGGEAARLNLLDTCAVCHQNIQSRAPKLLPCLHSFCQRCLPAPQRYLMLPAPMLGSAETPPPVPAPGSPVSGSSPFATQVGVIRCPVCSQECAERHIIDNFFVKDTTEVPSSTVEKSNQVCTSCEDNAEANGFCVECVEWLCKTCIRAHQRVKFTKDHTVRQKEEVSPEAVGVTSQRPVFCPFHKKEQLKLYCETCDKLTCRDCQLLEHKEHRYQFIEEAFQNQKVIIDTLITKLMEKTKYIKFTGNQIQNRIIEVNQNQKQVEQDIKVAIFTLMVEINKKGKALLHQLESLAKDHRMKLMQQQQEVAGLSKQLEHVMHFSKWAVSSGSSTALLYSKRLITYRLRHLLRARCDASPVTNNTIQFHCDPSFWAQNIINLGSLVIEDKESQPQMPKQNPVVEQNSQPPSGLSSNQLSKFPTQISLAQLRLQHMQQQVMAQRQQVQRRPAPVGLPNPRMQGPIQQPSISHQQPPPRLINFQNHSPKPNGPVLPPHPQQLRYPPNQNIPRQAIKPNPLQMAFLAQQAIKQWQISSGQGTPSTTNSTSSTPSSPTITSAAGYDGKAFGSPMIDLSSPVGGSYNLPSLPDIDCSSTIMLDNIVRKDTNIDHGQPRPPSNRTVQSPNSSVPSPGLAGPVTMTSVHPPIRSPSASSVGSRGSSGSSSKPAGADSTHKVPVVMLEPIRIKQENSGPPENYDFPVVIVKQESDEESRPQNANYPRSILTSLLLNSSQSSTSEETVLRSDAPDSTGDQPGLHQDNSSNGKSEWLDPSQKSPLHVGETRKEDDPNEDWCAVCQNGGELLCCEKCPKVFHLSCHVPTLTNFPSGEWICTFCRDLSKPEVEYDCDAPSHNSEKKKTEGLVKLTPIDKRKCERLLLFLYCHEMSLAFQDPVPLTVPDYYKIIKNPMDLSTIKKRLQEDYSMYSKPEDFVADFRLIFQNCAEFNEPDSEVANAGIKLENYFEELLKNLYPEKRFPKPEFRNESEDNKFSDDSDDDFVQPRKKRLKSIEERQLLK
Method in brief: as §1

[4] = target: T4, ~100 representative kinases (Homo sapiens, UniProt Q96GD4); details: Protein AURKB; average of three replicates
T4 construct: Recombinant protein kinase domains with a concentration of 2 μM
Method in brief: as §1

[5] = target: T5, ~100 representative kinases (Homo sapiens, UniProt O75385); details: Protein ULK1; DSF; average of three replicates
T5 construct: Recombinant protein kinase domains with a concentration of 2 μM
T5 sequence (O75385 1-1050): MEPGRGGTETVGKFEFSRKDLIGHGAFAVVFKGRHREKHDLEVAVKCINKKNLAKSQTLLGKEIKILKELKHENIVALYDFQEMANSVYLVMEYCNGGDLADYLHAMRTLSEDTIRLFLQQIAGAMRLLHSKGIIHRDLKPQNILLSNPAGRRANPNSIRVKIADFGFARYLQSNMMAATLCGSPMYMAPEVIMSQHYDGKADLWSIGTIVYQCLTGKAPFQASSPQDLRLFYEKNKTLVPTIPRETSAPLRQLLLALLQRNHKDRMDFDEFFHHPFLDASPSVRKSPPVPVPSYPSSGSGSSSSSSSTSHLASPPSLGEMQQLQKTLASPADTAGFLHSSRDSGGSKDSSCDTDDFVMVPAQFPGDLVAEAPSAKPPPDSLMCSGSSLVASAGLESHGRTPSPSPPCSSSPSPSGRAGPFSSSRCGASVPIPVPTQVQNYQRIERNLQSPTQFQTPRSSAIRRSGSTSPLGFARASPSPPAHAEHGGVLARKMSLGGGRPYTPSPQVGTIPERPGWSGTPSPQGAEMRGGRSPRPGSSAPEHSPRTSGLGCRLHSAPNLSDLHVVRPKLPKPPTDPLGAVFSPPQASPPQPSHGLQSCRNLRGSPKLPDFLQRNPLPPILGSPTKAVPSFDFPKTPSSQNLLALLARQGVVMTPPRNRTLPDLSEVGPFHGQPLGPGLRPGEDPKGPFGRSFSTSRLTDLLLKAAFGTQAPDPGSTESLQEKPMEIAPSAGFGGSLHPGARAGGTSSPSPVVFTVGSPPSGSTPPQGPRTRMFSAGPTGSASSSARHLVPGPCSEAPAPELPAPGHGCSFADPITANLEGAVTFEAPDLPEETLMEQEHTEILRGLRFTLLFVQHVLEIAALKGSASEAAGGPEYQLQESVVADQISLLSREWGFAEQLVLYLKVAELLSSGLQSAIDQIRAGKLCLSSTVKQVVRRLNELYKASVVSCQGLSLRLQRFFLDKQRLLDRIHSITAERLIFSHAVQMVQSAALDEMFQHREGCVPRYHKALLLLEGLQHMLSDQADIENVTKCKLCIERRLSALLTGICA
Method in brief: as §1

[6] = target: T6, ~100 representative kinases (Homo sapiens, UniProt Q02750); details: protein MAP2K1; average of three replicates
T6 construct: Recombinant protein kinase domains with a concentration of 2 μM
Method in brief: as §1

T6 sequence (Q02750 whole entry, the tested form may be a part): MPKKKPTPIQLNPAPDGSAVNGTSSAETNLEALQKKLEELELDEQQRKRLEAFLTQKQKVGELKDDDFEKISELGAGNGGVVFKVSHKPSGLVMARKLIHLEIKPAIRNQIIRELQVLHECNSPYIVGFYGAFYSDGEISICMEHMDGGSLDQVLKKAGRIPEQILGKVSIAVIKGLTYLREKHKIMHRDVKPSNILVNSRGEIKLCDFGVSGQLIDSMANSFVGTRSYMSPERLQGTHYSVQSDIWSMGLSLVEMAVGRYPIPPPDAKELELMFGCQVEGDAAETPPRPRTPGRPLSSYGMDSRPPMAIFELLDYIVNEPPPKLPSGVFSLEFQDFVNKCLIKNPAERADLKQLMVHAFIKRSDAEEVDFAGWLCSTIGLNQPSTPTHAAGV
T1 sequence (P78368 whole entry, the tested form may be a part): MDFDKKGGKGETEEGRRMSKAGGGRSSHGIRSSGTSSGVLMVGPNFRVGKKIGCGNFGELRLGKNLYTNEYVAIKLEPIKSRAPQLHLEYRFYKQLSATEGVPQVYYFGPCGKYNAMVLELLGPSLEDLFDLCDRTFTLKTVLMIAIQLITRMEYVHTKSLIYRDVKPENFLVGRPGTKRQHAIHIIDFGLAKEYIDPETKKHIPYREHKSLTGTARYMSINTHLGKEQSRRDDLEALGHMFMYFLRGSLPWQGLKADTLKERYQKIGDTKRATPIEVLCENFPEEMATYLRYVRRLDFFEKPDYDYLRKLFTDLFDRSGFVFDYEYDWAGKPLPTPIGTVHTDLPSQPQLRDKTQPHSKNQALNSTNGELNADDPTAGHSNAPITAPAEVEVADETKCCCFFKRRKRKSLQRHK
T2 sequence (P22607 23-806): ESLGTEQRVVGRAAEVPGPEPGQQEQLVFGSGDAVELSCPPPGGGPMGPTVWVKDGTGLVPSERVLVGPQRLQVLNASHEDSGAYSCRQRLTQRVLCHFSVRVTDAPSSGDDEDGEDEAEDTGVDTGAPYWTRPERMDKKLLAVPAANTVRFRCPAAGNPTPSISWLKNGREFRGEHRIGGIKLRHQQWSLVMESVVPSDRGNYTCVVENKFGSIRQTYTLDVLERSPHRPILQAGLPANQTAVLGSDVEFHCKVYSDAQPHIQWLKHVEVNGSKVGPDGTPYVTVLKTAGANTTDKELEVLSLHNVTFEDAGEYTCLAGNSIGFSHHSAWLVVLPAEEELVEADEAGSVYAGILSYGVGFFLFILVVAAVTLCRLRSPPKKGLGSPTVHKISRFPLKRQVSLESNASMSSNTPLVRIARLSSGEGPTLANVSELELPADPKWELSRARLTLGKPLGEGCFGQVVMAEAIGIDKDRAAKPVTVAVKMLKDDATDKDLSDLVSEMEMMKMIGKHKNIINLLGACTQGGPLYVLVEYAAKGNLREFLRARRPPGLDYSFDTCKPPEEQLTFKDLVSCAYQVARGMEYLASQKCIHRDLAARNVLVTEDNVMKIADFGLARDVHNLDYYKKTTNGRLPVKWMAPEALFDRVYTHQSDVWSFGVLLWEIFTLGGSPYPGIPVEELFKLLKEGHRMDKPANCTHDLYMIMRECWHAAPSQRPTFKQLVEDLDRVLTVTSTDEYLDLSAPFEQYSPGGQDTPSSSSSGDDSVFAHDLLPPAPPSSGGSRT
T4 sequence (Q96GD4 whole entry, the tested form may be a part): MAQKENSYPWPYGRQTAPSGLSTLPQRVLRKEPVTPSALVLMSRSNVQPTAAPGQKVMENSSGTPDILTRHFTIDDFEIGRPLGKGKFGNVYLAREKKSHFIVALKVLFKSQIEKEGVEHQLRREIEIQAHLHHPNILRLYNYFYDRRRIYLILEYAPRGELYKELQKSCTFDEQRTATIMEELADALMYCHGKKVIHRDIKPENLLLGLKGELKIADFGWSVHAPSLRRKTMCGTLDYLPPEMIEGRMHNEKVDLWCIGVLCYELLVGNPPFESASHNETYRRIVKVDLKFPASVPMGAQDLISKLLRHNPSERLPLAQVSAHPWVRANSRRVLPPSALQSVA

dTm [1] | dTm [2] | dTm [3] | dTm [4] | dTm [5] | dTm [6] | SMILES
0.45 K |  |  |  |  |  | O=C(Nc1ccc(F)cc1)C1(C(=O)Nc2cccc(-c3c[nH]c4ncnc(N5CCOCC5)c34)c2)CC1 [Compound 2]
0.39 K |  |  |  |  |  | O=C(Nc1ccccc1)C1(C(=O)Nc2cccc(-c3c[nH]c4ncnc(N5CCOCC5)c34)c2)CC1 [Compound 12]
0.51 K |  |  |  |  |  | O=C(Nc1ccc(Cl)cc1)C1(C(=O)Nc2cccc(-c3c[nH]c4ncnc(N5CCOCC5)c34)c2)CC1 [Compound 13]
0.81 K |  |  |  |  |  | Cc1ccc(NC(=O)C2(C(=O)Nc3cccc(-c4c[nH]c5ncnc(N6CCOCC6)c45)c3)CC2)cc1 [Compound 14]
0.60 K |  |  |  |  |  | CCc1ccc(NC(=O)C2(C(=O)Nc3cccc(-c4c[nH]c5ncnc(N6CCOCC6)c45)c3)CC2)cc1 [Compound 15]
0.71 K |  |  |  |  |  | COc1ccc(NC(=O)C2(C(=O)Nc3cccc(-c4c[nH]c5ncnc(N6CCOCC6)c45)c3)CC2)cc1 [Compound 16]
0.36 K |  |  |  |  |  | O=C(Nc1cccc(-c2c[nH]c3ncnc(N4CCOCC4)c23)c1)C1(C(=O)Nc2ccc(F)c(F)c2)CC1 [Compound 17]
0.27 K |  |  |  |  |  | O=C(Nc1cccc(-c2c[nH]c3ncnc(N4CCOCC4)c23)c1)C1(C(=O)Nc2ccc(F)c(Cl)c2)CC1 [Compound 18]
 | 4.74 K | 3.26 K | 5.64 K | 12.52 K | 2.40 K | O=C(Nc1cccc(-c2c[nH]c3ncnc(N4CCOCC4)c23)c1)C1(C(=O)Nc2ccc(F)c(Br)c2)CC1 [Compound 19]
0.39 K |  |  |  |  |  | Cc1cc(NC(=O)C2(C(=O)Nc3cccc(-c4c[nH]c5ncnc(N6CCOCC6)c45)c3)CC2)ccc1F [Compound 20]
0.57 K |  |  |  |  |  | COc1cc(NC(=O)C2(C(=O)Nc3cccc(-c4c[nH]c5ncnc(N6CCOCC6)c45)c3)CC2)ccc1F [Compound 21]
 | 4.54 K | 5.42 K | 1.96 K | 9.16 K | 2.23 K | CC(C)(C)c1cccc(NC(=O)C2(C(=O)Nc3cccc(-c4c[nH]c5ncnc(N6CCOCC6)c45)c3)CC2)c1 [Compound 22]

The remaining lines, values behind:

SMILES | dTm [1] | dTm [2] | dTm [3] | dTm [4] | dTm [5] | dTm [6]
O=C(Nc1cccc(-c2c[nH]c3ncnc(N4CCOCC4)c23)c1)c1cccn(-c2ccc(F)cc2)c1=O [Compound 4] | 0.40 K |  |  |  |  | 
Cc1cc(NC(=O)C2(C(=O)Nc3ccc(F)cc3)CC2)cc(-c2c[nH]c3ncnc(N4CCOCC4)c23)c1 [Compound 6] |  | 1.74 K | 2.83 K | 4.75 K | 5.26 K | 1.10 K
O=C(Nc1cccc(-c2c[nH]c3ncnc(N4CCOCC4)c23)c1)C1(C(=O)Nc2cccc3c2CCC3)CC1 [Compound 11] |  | 2.85 K | 3.41 K | -0.43 K | 6.92 K | 2.12 K
O=C(Nc1cccc(-c2c[nH]c3ncnc(N4CCOCC4)c23)c1)C1(C(=O)Nc2ccc(F)cc2F)CC1 [Compound 23] | 0.54 K |  |  |  |  | 
Cc1cc(F)ccc1NC(=O)C1(C(=O)Nc2cccc(-c3c[nH]c4ncnc(N5CCOCC5)c34)c2)CC1 [Compound 24] | 0.62 K |  |  |  |  | 
O=C(Nc1cccc(-c2c[nH]c3ncnc(N4CCOCC4)c23)c1)C1(C(=O)Nc2cc(Br)c(F)cc2F)CC1 [Compound 25] |  | 2.90 K | 3.01 K | -2.86 K | 7.16 K | 2.16 K
O=C(Nc1cccc(-c2c[nH]c3ncnc(N4CCOCC4)c23)c1)C1(C(=O)Nc2ccc(F)c(Br)c2F)CC1 [Compound 26] |  | 3.36 K | 2.87 K | 0.97 K | 8.48 K | 2.67 K
O=C(Nc1cc(F)cc(Br)c1)C1(C(=O)Nc2cccc(-c3c[nH]c4ncnc(N5CCOCC5)c34)c2)CC1 [Compound 27] |  | 2.07 K | 4.20 K | 2.17 K | 6.71 K | 2.13 K
CC(C)(C)c1cc(NC(=O)Nc2cccc(-c3c[nH]c4ncnc(N5CCOCC5)c34)c2)n(-c2ccc3ncccc3c2)n1 [Compound 28] | 0.05 K |  |  |  |  | 
Cc1ccc(-n2nc(C(C)(C)C)cc2NC(=O)Nc2cccc(-c3c[nH]c4ncnc(N5CCOCC5)c34)c2)cc1 [Compound 29] |  |  | 0.97 K | 3.15 K | 10.70 K | 2.87 K
Cc1ccc(-n2nc(C(C)(C)C)cc2NC(=O)Nc2cccc(-c3c[nH]c4nc(Cl)nc(N5CCOCC5)c34)c2)cc1 [Compound 30] |  |  | 1.73 K | -0.56 K | 2.91 K | 0.49 K
CC(=O)N1CCN(c2nc(Cl)nc3[nH]cc(-c4cccc(NC(=O)Nc5cc(C(C)(C)C)nn5-c5ccc(C)cc5)c4)c23)CC1 [Compound 31] |  |  | 0.90 K | -1.00 K | 2.80 K | 0.59 K
CCSc1nc(NC)c2c(-c3cccc(NC(=O)Nc4cc(C(C)(C)C)nn4-c4ccc(C)cc4)c3)c[nH]c2n1 [Compound 32] |  |  | 0.82 K | 0.28 K | 0.62 K | 0.11 K
COc1cc(C(=O)N2CCOCC2)c(F)cc1Nc1nc(N(C)C)c2c(Cl)c[nH]c2n1 [Compound 36] |  |  | -2.24 K | 1.54 K | -0.79 K | -0.30 K
COc1cc(S(C)(=O)=O)ccc1Nc1nc(N(C)C)c2c(Cl)c[nH]c2n1 [Compound 37] |  |  | -0.80 K | -0.0653 K | -0.88 K | -0.22 K
COc1cc2c(Oc3ccc(NC(=O)C4(C(=O)Nc5ccc(F)cc5)CC4)cc3F)ccnc2cc1OCCCN1CCOCC1 [Foretinib, reference compound] | 0.37 K |  |  |  |  | 
CNC(=O)c1cc(Oc2ccc(NC(=O)Nc3cc(C(C)(C)C)nn3-c3ccc4ncccc4c3)c(F)c2)ccn1 [Rebastinib, reference compound] |  |  | 0.87 K | 1.16 K | 5.73 K | 0.92 K
CN[C@@H]1C[C@H]2O[C@@](C)([C@@H]1OC)n1c3ccccc3c3c4c(c5c6ccccc6n2c5c31)C(=O)NC4 [Staurosporine] |  |  |  |  | 14.02 K | 
